From PubChem BioAssay AID2202554 (NIEHS Division of Translational Toxicology (DTT))
Records with an inconclusive call do not appear. The source made the active and inactive calls. How the calls were made is not given here.

These compounds were tested on S. typhimurium/E. coli reverse mutation, colony counts (assay: Bacterial reverse mutation test (aka Ames test) summary data).
How it was run: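 S. typhimurium his⁻ strains (TA97–TA1538) and E. coli WP2 uvrA pKM101 trp⁻, dosed over a range with or without rat, hamster or mouse liver S9. Preincubated 20 min at 37° C (or plate incorporation), plated in agar, incubated usually two days. Revertant colonies counted against negative controls.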
`O=C1CCc2ccccc2O1` was tested, and the outcome was “inactive; negative”. In the case of `Oc1ccc(Cl)c(Cl)c1Cl`, the outcome is reported as “inactive; negative”. With `CCCC=C(C=O)CC` the outcome was “inactive; negative”. With `CCCCCCCCCCCCCC(=O)O` the outcome was “inactive; negative”. `NC(=O)c1cccnc1` was tested, and the outcome was “inactive; negative”. `C#CCO` was tested, and the outcome was “active; positive”. For `O=Cc1ccc(CO)o1`, the outcome was “active; weakly positive”. `Clc1ccc2c(c1)Oc1ccc(Cl)cc1O2` was tested, and the outcome was “inactive; negative”. With `CCC[CH2][Sn]([Cl])([Cl])[Cl]` the outcome was “inactive; negative”. With `C=CCSSCCC` the outcome was “inactive; negative”. With `N#Cc1c(Cl)c(Cl)c(Cl)c(C#N)c1Cl` the outcome was “inactive; negative”. With `CN(C)N=Nc1nc[nH]c1C(N)=O` the outcome was “active; positive”. In the case of `Nc1ccc(N)c2c1C(=O)c1c(N)ccc(N)c1C2=O`, the outcome is reported as “active; positive”. `Nc1ccccc1O` was tested, and the outcome was “active; positive”. For `Cc1cccc([N+](=O)[O-])c1N`, the outcome was “active; positive”. `ClC1=C(Cl)[C@]2(Cl)[C@@H]3[C@H]4C[C@H]([C@@H]5O[C@H]45)[C@@H]3[C@@]1(Cl)C2(Cl)Cl` was tested, and the outcome was “inactive; negative”. For `CCCCCCOC(=O)c1ccccc1`, the outcome was “inactive; negative”. `C=C(F)F` was tested, and the outcome was “active; positive”. For `Cc1ccc(N=Nc2c(O)ccc3ccccc23)c([N+](=O)[O-])c1`, the outcome was “active; positive”. In the case of `N#[N+]c1ccc2c(S(=O)(=O)[O-])cccc2c1O`, the outcome is reported as “active; positive”. For `CC=C(C)C#N`, the outcome was “inactive; negative”. For `[Li+]`, the outcome was “inactive; negative”. In the case of `CC(=O)C=CC1=C(C)CCCC1(C)C`, the outcome is reported as “inactive; negative”. `CCCCC(CC)COCCCN` (stereo unspecified) was tested, and the outcome was “inactive; negative”. For `Cc1c(N(C)C)c(=O)n(-c2ccccc2)n1C`, the outcome was “active; weakly positive”. With `CCOP(=S)(OCC)SCSC(C)(C)C` the outcome was “inactive; negative”. In the case of `Oc1c(I)cc(Cl)c2cccnc12`, the outcome is reported as “inactive; negative”. With `CC(Cl)CCl` (stereo unspecified) the outcome was “active; weakly positive”. In the case of `c1ccc2c(c1)ccc1ccccc12`, the outcome is reported as “active; weakly positive”. In the case of `N#Cc1ccccc1`, the outcome is reported as “inactive; negative”. In the case of `CC(C)COC(=O)c1ccccc1N`, the outcome is reported as “inactive; negative”. In the case of `NCCNCCNCCNCCN`, the outcome is reported as “active; positive”. In the case of `O=P(OCCCl)(OCCCl)OCCCl`, the outcome is reported as “inactive; negative”. With `C=Cc1ccccc1Cl` the outcome was “inactive; negative”. With `CCCCCCC(=O)O` the outcome was “inactive; negative”. With `COC(=O)Nc1nc2ccccc2[nH]1` the outcome was “active; positive”. `O=[N+]([O-])c1cccc2ccccc12` was tested, and the outcome was “active; positive”. For `CCc1ccccc1O`, the outcome was “inactive; negative”. For `CCCCCCC(=O)OCC`, the outcome was “inactive; negative”. In the case of `CC(=O)OC1CC(C)OC(C)O1` (stereo unspecified), the outcome is reported as “active; positive”. In the case of `CCCCOC(C)=O`, the outcome is reported as “inactive; negative”. `CC[C@H](C)COC(=O)C=Cc1ccc(N=Cc2ccc(OC)cc2)cc1` was tested, and the outcome was “active; positive”. In the case of `O=C(O)C(=O)O`, the outcome is reported as “inactive; negative”. For `Nc1c(Cl)cc([N+](=O)[O-])cc1Cl`, the outcome was “active; positive”. For `O=NN1CCOCC1`, the outcome was “active; positive”. With `Nc1ccc(N)cc1` the outcome was “active; positive”. In the case of `NCN`, the outcome is reported as “active; positive”. `CC=C(Cl)Cl` was tested, and the outcome was “inactive; negative”. In the case of `C=C`, the outcome is reported as “inactive; negative”. With `CCCCCCCCCCCC(C)=O` the outcome was “inactive; negative”. With `CC(=O)OC(C(=O)c1ccccc1)c1ccccc1` (stereo unspecified) the outcome was “inactive; negative”. In the case of `CN(C)C(=O)Cl`, the outcome is reported as “active; positive”. With `COc1ccc(C)cc1N` the outcome was “active; positive”. With `NC(Cc1ccc(F)cc1)C(=O)O` (stereo unspecified) the outcome was “inactive; negative”. For `CN(C)c1ccc2nc3ccc(=[N+](C)C)cc-3sc2c1`, the outcome was “active; positive”. With `Nc1c(Br)cc(Br)c2c1C(=O)c1ccccc1C2=O` the outcome was “active; positive”. For `CC(=O)C1(C)CC2=C(CCCC2(C)C)CC1C` (stereo unspecified), the outcome was “inactive; negative”. With `O=C1NS(=O)(=O)c2ccccc21` the outcome was “inactive; negative”. For `CCCCC(=O)N(C)C`, the outcome was “inactive; negative”. In the case of `CCc1cccc(C)c1N`, the outcome is reported as “inactive; negative”. For `O=c1[nH]c(=O)[nH]c(=O)[nH]1`, the outcome was “inactive; negative”. In the case of `Oc1cc2c(cc1O)[C@@H]1c3ccc(O)c(O)c3OC[C@]1(O)C2`, the outcome is reported as “inactive; negative”. `O=C(O)CCC(=O)OC[C@@H](NC(=O)C(Cl)Cl)[C@H](O)c1ccc([N+](=O)[O-])cc1` was tested, and the outcome was “inactive; negative”. In the case of `CCCCCC[C@@H](O)C/C=C\CCCCCCCC(=O)O`, the outcome is reported as “inactive; negative”. `ClCc1ccccc1` was tested, and the outcome was “active; weakly positive”. With `ClC1=C(Cl)C2(Cl)C3C(Cl)C=CC3C1(Cl)C2(Cl)Cl` (stereo unspecified) the outcome was “inactive; negative”. For `[N-]=[N+]=[N-]`, the outcome was “active; positive”. In the case of `Cc1ccc([N+](=O)[O-])c(C(=O)O)c1`, the outcome is reported as “active; positive”. `CC(COC(=O)c1ccccc1)(COC(=O)c1ccccc1)COC(=O)c1ccccc1` was tested, and the outcome was “inactive; negative”. With `COc1cc(C=O)ccc1O` the outcome was “inactive; negative”. With `CCCCCCCCCCCCS` the outcome was “inactive; negative”. `Nc1cc(C(=O)O)c(O)c(S(=O)(=O)O)c1` was tested, and the outcome was “inactive; negative”. In the case of `CN(C)CCN(C)C`, the outcome is reported as “inactive; negative”. In the case of `O=C(O)COc1ccccc1`, the outcome is reported as “inactive; negative”. With `O=Nc1ccc(O)cc1` the outcome was “active; weakly positive”. With `CCN(CC)C(=S)S[Te](SC(=S)N(CC)CC)(SC(=S)N(CC)CC)SC(=S)N(CC)CC` the outcome was “inactive; negative”. `ClC1=C(Cl)[C@]2(Cl)[C@@H]3[C@@H]4C[C@@H]([C@H]5O[C@@H]45)[C@@H]3[C@@]1(Cl)C2(Cl)Cl` was tested, and the outcome was “inactive; negative”. In the case of `Cc1ccc(OCC2CO2)cc1` (stereo unspecified), the outcome is reported as “active; positive”. `CC(=O)OCCC(C)C` was tested, and the outcome was “inactive; negative”. With `O=Cc1cccc(Br)c1` the outcome was “inactive; negative”. In the case of `O=[N+]([O-])c1cc([As](=O)(O)O)ccc1O`, the outcome is reported as “inactive; negative”. In the case of `Nc1nc2ccc([N+](=O)[O-])cc2s1`, the outcome is reported as “active; positive”. For `COc1cccc2sc(N)nc12`, the outcome was “active; positive”. With `CC(N)=S` the outcome was “inactive; negative”. With `O=C1O[C@H]([C@H](O)CO)C(O)=C1O` the outcome was “active; weakly positive”. In the case of `Nc1ccc2cc3ccccc3cc2c1`, the outcome is reported as “active; positive”. In the case of `CC(C)(O)C#N`, the outcome is reported as “inactive; negative”. For `O=C(O)c1ccc(Cl)cc1Cl`, the outcome was “inactive; negative”. With `CCC#N` the outcome was “inactive; negative”. For `c1cc(OCC2CO2)cc(OCC2CO2)c1` (stereo unspecified), the outcome was “active; positive”. In the case of `FCC1CO1` (stereo unspecified), the outcome is reported as “active; positive”. For `CCN(CC)CCNc1ccc(CO)c2sc3ccccc3c(=O)c12`, the outcome was “active; positive”. With `CCN(CC)c1ccccc1` the outcome was “inactive; negative”. `Cc1ccc2nc(-c3ccc(N)cc3)sc2c1` was tested, and the outcome was “active; positive”. For `c1cc2ccc3cccc4ccc(c1)c2c34`, the outcome was “active; positive”. For `O=C(O)CNC(=O)c1ccc([N+](=O)[O-])cc1`, the outcome was “active; positive”. For `O=C(O)C(Cl)Br` (stereo unspecified), the outcome was “active; positive”. With `O=[N+]([O-])c1ccc(O)c([N+](=O)[O-])c1` the outcome was “inactive; negative”. In the case of `Oc1ccc(Cl)cc1`, the outcome is reported as “inactive; negative”. With `Oc1c(Cl)ccc(Cl)c1Cl` the outcome was “inactive; negative”. For `O.O=S(=O)([O-])[O-].[Mn+2]`, the outcome was “inactive; negative”. In the case of `CC(C)Br`, the outcome is reported as “active; positive”. In the case of `COc1ccc(CN(CCN(C)C)c2ncccn2)cc1`, the outcome is reported as “inactive; negative”. `CNC(=S)N(C)C` was tested, and the outcome was “inactive; negative”. For `NCCNc1cccc2ccccc12`, the outcome was “active; positive”. `[Cl][In]([Cl])[Cl]` was tested, and the outcome was “inactive; negative”. With `CC(=O)NS(=O)(=O)c1ccc(N)cc1` the outcome was “inactive; negative”. For `Cl`, the outcome was “inactive; negative”. In the case of `NCP(=O)(O)O`, the outcome is reported as “inactive; negative”. With `ONc1ccccc1` the outcome was “active; positive”. For `C=CC(=O)OCC(Br)CBr` (stereo unspecified), the outcome was “active; positive”. With `C[Si]12OCCN(CCO1)CCO2` the outcome was “inactive; negative”. With `COc1ccc(OC)c(N=Nc2c(O)ccc3ccccc23)c1` the outcome was “active; positive”. In the case of `Brc1ccccc1`, the outcome is reported as “inactive; negative”. For `C=C(C)C1CC=C(C)C(OC(C)=O)C1` (stereo unspecified), the outcome was “inactive; negative”. `CS(C)=O` was tested, and the outcome was “inactive; negative”. `O=[N+]([O-])c1ccc(Nc2ccccc2O)c([N+](=O)[O-])c1` was tested, and the outcome was “active; positive”. For `C=CC(C)C#N` (stereo unspecified), the outcome was “active; weakly positive”. In the case of `CCC(C)(C)c1ccc(O)cc1`, the outcome is reported as “inactive; negative”. In the case of `O=C1c2cccc(O)c2C(=O)c2c(O)cccc21`, the outcome is reported as “active; weakly positive”. In the case of `CCCCCCOc1ccc(O)cc1`, the outcome is reported as “inactive; negative”. For `CCN(CC)CCCC(C)Nc1c2ccc(Cl)cc2nc2ccc(OC)cc12` (stereo unspecified), the outcome was “active; positive”. In the case of `CC(C)S`, the outcome is reported as “inactive; negative”. In the case of `CC(N)C(=O)O` (stereo unspecified), the outcome is reported as “inactive; negative”. With `Nc1ccc(Cl)cc1N` the outcome was “active; positive”. `Cc1cc(N=Nc2ccccc2C)ccc1N` was tested, and the outcome was “active; positive”. In the case of `COC(=O)NC(=S)Nc1ccccc1NC(=S)NC(=O)OC`, the outcome is reported as “active; positive”. For `NC(=O)c1ncn([C@@H]2O[C@H](CO)[C@@H](O)[C@H]2O)n1`, the outcome was “inactive; negative”. For `OC(O)C(Cl)(Cl)Cl`, the outcome was “active; positive”. `CCCCCCCCCC=CCC1CC(=O)OC1=O` (stereo unspecified) was tested, and the outcome was “inactive; negative”. For `O=c1[nH][nH]c(=O)c2cc([N+](=O)[O-])ccc12`, the outcome was “active; positive”. With `COP(=O)(OC)C(O)C(Cl)(Cl)Cl` (stereo unspecified) the outcome was “active; weakly positive”. In the case of `ClCc1cccnc1`, the outcome is reported as “active; positive”. `CCC1CO1` (stereo unspecified) was tested, and the outcome was “active; positive”. In the case of `COc1cc(CNC(=O)CCCC/C=C/C(C)C)ccc1O`, the outcome is reported as “inactive; negative”. `O=C([O-])c1ccccc1C1c2ccc([O-])c(Br)c2Oc2c1ccc(O)c2Br.[Zr+2]` was tested, and the outcome was “inactive; negative”.
